What was measured:
[1] = Physicochemical characterization of lipid microsuspensions (pH, viscosity, osmolality, particle size); settings: Table 9, lipid microsuspension containing the drug
From the text: The diameter of a particle, such as a microparticle of mTOR inhibitor in oil and cyclodextrin/lipid complexes, can correspond to the D50 diameter of the particle. Diameter D50 is also known as the median diameter or the medium value of the particle size distribution. Diameter D50 corresponds to the value of the particle diameter at 50% in the cumulative distribution. For example, if D50 is 5 μm, then 50% of the particles in the sample are larger than 5 μm, and 50% smaller than 5 μm. Diameter D50 is usually used to represent the particle size of a group of particles.
The diameter and/or size of a particle can be measured according to any method known to those of ordinary skill in the art. For example, the diameter D50 is measured by laser diffraction particle size analysis. […] In particular, persons of ordinary skill in this field know that the physical properties (e.g. particle size, diameter, average diameter, mean particle size, etc.) are typically evaluated/measured using such limited, typical known techniques.
In specific embodiments, the particle size is measured by laser diffraction particle size analysis according to Pharm. […]
Following is a general procedure for preparation of a non-sterile lipid microsuspension at laboratory scale and for a total batch size of 100 g:
First, appropriate quantity of castor oil containing the dissolved drug-substance (i.e., everolimus) is transferred into a glass container. Second, under stirring with a magnetic stirrer aqueous α-cyclodextrin solution is added to the container. Third, aqueous solution containing EDTA and glycerol is added. Fourth, aqueous solution of Kolliphor HS15 is added. Mixing is continued for about 10 minutes before the stirring bar is removed and the suspension formed mixed with a high-shear homogenizer probe (Ultra-Turrax® T25 homogenizer, IKA-Werke, Germany, with probe IKA-S-25N-18G) operated at 8,000 RPM for about 10 minutes. […] The pH is adjusted to 5.3±0.1 with concentrated hydrochloric acid solution and/or sodium hydroxide solution. Finally, if needed, purified water is added to adjust the final weight of the sample to 100%.
The mixture obtained was homogenized for 10 minutes at 12,000 rpm using Ultra-Turrax® high shear homogenizer with S25N-18G probe at 12,000 rpm for 10 minutes. […] The lipid microsuspension formed was stirred by magnetic stirrer for 30 minutes at room temperature. Finally, the pH was adjusted by addition of hydrochloric acid and/or sodium hydroxide. […]

[2] = Table 9; cited from earlier work
[3] = cited from earlier work; for chemical stability of derivative: sirolimus derivatives
[4] = from the microemulsion; cited from earlier work
[5] = room temperature; cited from earlier work
[6] = Phase-solubility of everolimus in aqueous cyclodextrin solutions; assay type: physicochemical; settings: pure aqueous cyclodextrin solutions, 25 °C
Method: Everolimus was added to each cyclodextrin solution in excess, the samples were continuously agitated on a magnetic stirrer for 24 hours.

Osmolality [1] [mOsmol/kg]	Particle size Dx(10) [1] [μm]	Particle size Dx(50) [1] [μm]	Particle size Dx(90) [1] [μm]	Viscosity at 15 rpm [1] [cP]	pH [1]	affinity for everolimus [6]	Compound	Drug LogP [2]	stability in microemulsion eye drops ([3]; microemulsion eye drops containing about 25% water)	topical bioavailability [4]	solubility in water [5]	chemical stability of derivative [3]
282	1.5	6.2	24	16.1	6.5		CCOC(=O)O[C@]1(C(=O)OCCl)CC[C@H]2[C@@H]3CCC4=CC(=O)C=C[C@]4(C)[C@H]3[C@@H](O)C[C@@]21C [Loteprednol etabonate, loteprednol etabonate]	3.9				
309	1.5	5.7	25	16.5	5.9		CO[C@H]1C[C@@H]2CC[C@@H](C)[C@@](O)(O2)C(=O)C(=O)N2CCCC[C@H]2C(=O)O[C@H]([C@H](C)C[C@@H]2CC[C@@H](O)[C@H](OC)C2)CC(=O)[C@H](C)/C=C(\C)[C@@H](O)[C@@H](OC)C(=O)[C@H](C)C[C@H](C)/C=C/C=C/C=C/1C [Sirolimus, sirolimus]	6.0	stable	very low		
304	1.5	5.3	22	15.7	5.0		C=CC[C@@H]1/C=C(\C)C[C@H](C)C[C@H](OC)[C@H]2O[C@@](O)(C(=O)C(=O)N3CCCC[C@H]3C(=O)O[C@H](/C(C)=C/[C@@H]3CC[C@@H](O)[C@H](OC)C3)[C@H](C)[C@@H](O)CC1=O)[C@H](C)C[C@@H]2OC [Tacrolimus, tacrolimus]					
						lowest affinity	OC[C@H]1O[C@@H]2O[C@H]3[C@H](O)[C@@H](O)[C@@H](O[C@H]4[C@H](O)[C@@H](O)[C@@H](O[C@H]5[C@H](O)[C@@H](O)[C@@H](O[C@H]6[C@H](O)[C@@H](O)[C@@H](O[C@H]7[C@H](O)[C@@H](O)[C@@H](O[C@H]1[C@H](O)[C@H]2O)O[C@@H]7CO)O[C@@H]6CO)O[C@@H]5CO)O[C@@H]4CO)O[C@@H]3CO [α-cyclodextrin]					

Continued, molecule first:

Compound	Osmolality [1] [mOsmol/kg]	Particle size Dx(10) [1] [μm]	Particle size Dx(50) [1] [μm]	Particle size Dx(90) [1] [μm]	Viscosity at 15 rpm [1] [cP]	pH [1]	affinity for everolimus [6]	Drug LogP [2]	stability in microemulsion eye drops ([3]; microemulsion eye drops containing about 25% water)	topical bioavailability [4]	solubility in water [5]	chemical stability of derivative [3]
C[C@@H]1C[C@H]2[C@@H]3CCC4=CC(=O)C=C[C@]4(C)[C@@]3(F)[C@@H](O)C[C@]2(C)[C@@]1(O)C(=O)CO [Dexamethasone, dexamethasone]	297	1.4	4.6	16	17.7	6.4		1.9				
CO[C@H]1C[C@@H]2CC[C@@H](C)[C@@](O)(O2)C(=O)C(=O)N2CCCC[C@H]2C(=O)O[C@H]([C@H](C)C[C@@H]2CC[C@@H](OC(=O)C(C)(CO)CO)[C@H](OC)C2)CC(=O)[C@H](C)/C=C(\C)[C@@H](O)[C@@H](OC)C(=O)[C@H](C)C[C@H](C)/C=C/C=C/C=C/1C [Temsirolimus, 42-[3-hydroxy-2-(hydroxymethyl)-2-methylpropanoate]-rapamycin]											about 7 mg/mL	do not improve the chemical stability
CO[C@H]1C[C@@H]2CC[C@@H](C)[C@@](O)(O2)C(=O)C(=O)N2CCCC[C@H]2C(=O)O[C@H]([C@H](C)C[C@@H]2CC[C@@H](OP(C)(C)=O)[C@H](OC)C2)CC(=O)[C@H](C)/C=C(\C)[C@@H](O)[C@@H](OC)C(=O)[C@H](C)C[C@H](C)/C=C/C=C/C=C/1C [deforolimus, 42-(dimethylphosphinate)-rapamycin]											about 7 mg/mL	do not improve the chemical stability

From US20260364003A1, “EYE DROP MICROSUSPENSIONS OF MTOR INHIBITORS” (OCULIS OPERATIONS SARL, priority 2022, published 2026)
